Laboratory results published in the supplement of paper PMC10307832.

How the values were obtained:
Test in all cases: relative viability (nuclei count vs DMSO), 5 days (fraction); higher = more cells survive
Sorafenib + Pictilisib = compound: CNC(=O)c1cc(Oc2ccc(NC(=O)Nc3ccc(Cl)c(C(F)(F)F)c3)cc2)ccn1 [Sorafenib] + CS(=O)(=O)N1CCN(Cc2cc3nc(-c4cccc5[nH]ncc45)nc(N4CCOCC4)c3s2)CC1 [Pictilisib] (partner 1 µM)
Method in brief: (§1)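 A single step with final 0.05% Triton X-100, 1% formaldehyde and 1 ug/ml Hoechst fixed the cells and stained nuclei 5 days after treatment. Lung cancer cell lines in 1536-well plates had been treated by pin tool the day after seeding with one drug alone or a fixed anchor-drug dose plus five library-drug doses (not always all listed) in √10 steps, and nuclei were counted on 4× images. Relative viability is the ratio of nuclei in treated wells to nuclei in vehicle wells, taken as the median of duplicate plates.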

Sorafenib + Crizotinib = compound: CNC(=O)c1cc(Oc2ccc(NC(=O)Nc3ccc(Cl)c(C(F)(F)F)c3)cc2)ccn1 [Sorafenib] + C[C@@H](Oc1cc(-c2cnn(C3CCNCC3)c2)cnc1N)c1c(Cl)ccc(F)c1Cl [Crizotinib] (partner 1 µM)
Method in brief: as §1

Sorafenib + Dasatinib = compound: CNC(=O)c1cc(Oc2ccc(NC(=O)Nc3ccc(Cl)c(C(F)(F)F)c3)cc2)ccn1 [Sorafenib] + Cc1nc(Nc2ncc(C(=O)Nc3c(C)cccc3Cl)s2)cc(N2CCN(CCO)CC2)n1 [Dasatinib] (partner 0.075 µM)
Method in brief: as §1

Sorafenib + Phenformin = compound: CNC(=O)c1cc(Oc2ccc(NC(=O)Nc3ccc(Cl)c(C(F)(F)F)c3)cc2)ccn1 [Sorafenib] + N=C(N)NC(=N)NCCc1ccccc1 [Phenformin] (partner 250 µM)
Method in brief: as §1

Sorafenib + Vorinostat = compound: CNC(=O)c1cc(Oc2ccc(NC(=O)Nc3ccc(Cl)c(C(F)(F)F)c3)cc2)ccn1 [Sorafenib] + O=C(CCCCCCC(=O)Nc1ccccc1)NO [Vorinostat] (partner 1 µM)
Method in brief: as §1

Row | Cell Line | relative viability (Sorafenib + Pictilisib; first compound 0.08 µM) | relative viability (Sorafenib + Pictilisib; first compound 0.253 µM) | relative viability (Sorafenib + Pictilisib; first compound 2.53 µM) | relative viability (Sorafenib + Pictilisib; first compound 8 µM) | relative viability (Sorafenib + Crizotinib; first compound 0.08 µM) | relative viability (Sorafenib + Crizotinib; first compound 0.253 µM) | relative viability (Sorafenib + Crizotinib; first compound 2.53 µM) | relative viability (Sorafenib + Crizotinib; first compound 8 µM) | relative viability (Sorafenib + Dasatinib; first compound 0.08 µM) | relative viability (Sorafenib + Dasatinib; first compound 0.253 µM) | relative viability (Sorafenib + Dasatinib; first compound 2.53 µM) | relative viability (Sorafenib + Dasatinib; first compound 8 µM) | relative viability (Sorafenib + Phenformin; first compound 0.08 µM) | relative viability (Sorafenib + Phenformin; first compound 0.253 µM) | relative viability (Sorafenib + Phenformin; first compound 2.53 µM) | relative viability (Sorafenib + Phenformin; first compound 8 µM) | relative viability (Sorafenib + Vorinostat; first compound 0.08 µM) | relative viability (Sorafenib + Vorinostat; first compound 0.253 µM) | relative viability (Sorafenib + Vorinostat; first compound 2.53 µM) | relative viability (Sorafenib + Vorinostat; first compound 8 µM)
1 | NCI-H358 | 0.364 | 0.393 | 0.469 | 0.184 | 0.56 | 0.72 | 0.713 | 0.292 | 0.202 | 0.186 | 0.379 | 0.151 | 0.442 | 0.392 | 0.468 | 0.146 | 0.666 | 0.712 | 0.594 | 0.208
2 | NCI-H441 | 0.524 | 0.476 | 0.409 | 0.445 | 0.727 | 0.64 | 0.532 | 0.473 | – | – | 0.503 | 0.308 | 0.976 | – | 0.745 | 0.412 | 0.638 | 0.756 | 0.547 | 0.47
3 | NCI-H460 | – | 0.442 | 0.51 | 0.3 | 1.02 | 0.777 | 0.918 | 0.502 | 0.554 | 0.541 | 0.498 | 0.416 | 0.528 | 0.495 | 0.462 | 0.046 | 0.748 | 0.582 | 0.611 | 0.363
4 | NCI-H520 | 0.337 | 0.322 | 0.307 | 0.188 | 0.912 | 0.695 | 0.67 | 0.581 | 0.231 | 0.225 | 0.216 | 0.174 | 0.673 | 0.316 | 0.574 | 0.253 | 0.673 | 0.597 | 0.606 | 0.27
5 | NCI-H596 | 0.354 | 0.436 | 0.374 | 0.372 | 0.963 | 0.982 | 1.06 | 0.957 | 0.68 | 0.53 | 0.55 | 0.461 | 0.787 | 0.587 | 0.665 | 0.86 | 0.748 | 0.547 | 0.929 | 0.717
6 | NCI-H647 | 0.544 | – | 0.475 | 0.374 | 1.05 | 0.972 | 0.867 | 0.395 | 0.245 | 0.172 | 0.174 | 0.135 | 0.636 | 0.495 | 0.454 | 0.198 | 0.473 | 0.453 | 0.257 | 0.0463
7 | NCI-H650 | 0.911 | 0.751 | 0.696 | 0.746 | 0.777 | 0.563 | 0.735 | 0.595 | 0.508 | 0.367 | 0.462 | 0.425 | 0.45 | 0.399 | 0.461 | 0.428 | 0.855 | 0.257 | 0.371 | 0.449
8 | NCI-H661 | 0.456 | 0.397 | 0.422 | 0.286 | 0.944 | 0.969 | 0.921 | 0.742 | 0.978 | 0.82 | 0.815 | 0.215 | 0.279 | 0.143 | 0.289 | 0.215 | 0.818 | 0.757 | 0.796 | 0.441
9 | NCI-H727 | 0.332 | 0.337 | 0.257 | 0.311 | 0.979 | 0.797 | 0.706 | 0.357 | 0.481 | 0.453 | 0.399 | 0.232 | 0.634 | 0.416 | 0.439 | 0.507 | 1.38 | 1.11 | 1.23 | 1.25
10 | NCI-H838 | 0.516 | 0.412 | 0.77 | 0.38 | 0.931 | 0.946 | 0.991 | 0.903 | 0.285 | 0.277 | 0.318 | 0.293 | 0.749 | – | 0.948 | 0.388 | – | 0.798 | 0.882 | 0.503
11 | NCI-H1355 | 0.444 | 0.465 | 0.45 | 0.346 | 1.16 | 1.04 | 1.04 | 1.11 | 0.74 | 0.627 | 0.816 | 0.54 | 0.497 | 0.468 | 0.452 | 0.387 | 0.752 | 0.563 | 0.662 | 0.505
12 | NCI-H1437 | 0.483 | 0.393 | 0.364 | 0.238 | 0.941 | 0.827 | 0.844 | 0.496 | 0.416 | 0.288 | 0.421 | 0.142 | 0.301 | 0.299 | 0.302 | 0.306 | 0.782 | 0.783 | 0.705 | 0.307
13 | NCI-H1650 | 0.691 | 0.529 | 0.71 | 0.308 | 0.961 | 1.1 | 1.01 | – | 0.366 | 0.33 | 0.296 | 0.172 | 0.557 | 0.456 | 0.564 | 0.164 | 0.505 | 0.567 | 0.633 | 0.424
14 | NCI-H1651 | 0.688 | 0.517 | 0.555 | 0.445 | 0.863 | 0.866 | 0.845 | 0.877 | 0.456 | 0.35 | 0.612 | 0.13 | 0.389 | 0.307 | 0.318 | 0.148 | 0.504 | 0.461 | 0.6 | 0.542
15 | NCI-H1666 | 0.497 | 0.407 | 0.451 | 0.331 | 1.01 | 0.899 | – | 0.487 | 0.913 | 0.788 | 0.829 | – | 0.562 | 0.546 | 0.544 | 0.452 | 1.01 | 0.873 | 1.05 | 0.966
